≈ marks a conversion by molar mass, not a printed value. Structures can show the parent of a compound that is named as a salt. Where two headings read alike, the source gives them in different places.
What was measured:
E. Coli ATCC 25922 = test: Test for evaluating antibacterial activity (E. coli), broth microdilution MIC; format: cell-based; conditions: Escherichia coli, ATCC25922; 35° C., 18 hours, cation-adjusted Mueller-Hinton medium
Summary of the method: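 Broth microdilution per modified CLSI method in cation-adjusted Mueller-Hinton medium. Inoculum from overnight heart infusion agar growth, McFarland 0.5 suspension diluted 10-fold; incubation 35° C for 18 hours. MIC taken as lowest drug concentration with no visible growth.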

[1] = tested on: N. gonorrhoeae ATCC 49226; test: Test for evaluating antibacterial activity (N. gonorrhoeae), broth microdilution MIC; format: cell-based; conditions: Neisseria gonorrhoeae, ATCC49226; 35° C., 24 hours, gonococcal broth
Summary of the method: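 Broth microdilution in gonococcal broth with 1% supplement C, inoculum from overnight chocolate II agar culture at McFarland 0.5 diluted 5-fold.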

E. coli topoisomerase IV = biological target: T1, E. coli topoisomerase IV (Escherichia coli, UniProt P20083); test: Test for evaluating the activity of inhibiting E. coli topoisomerase IV enzyme (relaxation); format: biochemical
T1 construct: purchased Inspiralis
Protocol: The enzymatic activity of E. coli topoisomerase IV was measured by a method comprising reacting topoisomerase IV and its substrate, supercoiled pBR322 (Inspiralis), in the presence of ATP and detecting the post-reaction supercoiled pBR322/relaxed pBR322 ratio with H19.
(§1) Specifically, to 2 ng/μL of supercoiled pBR322, E. coli topoisomerase IV enzyme (Inspiralis) was added at a final concentration of 0.0075 U/μL and the mixture was incubated for 30 minutes at room temperature. This reaction was carried out in 20 mmol/L tris-HCl buffered solution (pH 8.0) comprising 0.5 mmol/L ATP, 0.005% bridge 35, 35 mmol/L ammonium acetate, 8 mmol/L magnesium chloride, 4.6% glycerol, and 1 mmol/L dithiothreitol. To the reaction mixture, H19 was added to bring the reaction to an end; thereafter, the supercoiled pBR322/relaxed pBR322 ratio was detected at excitation wavelength/emission wavelength=485 nm/535 nm. An inhibition curve was obtained by allowing the analyte compound to be present at varying concentrations during the reaction described above.

E. coli DNA gyrase [2] = biological target: T2, E. coli DNA gyrase (Escherichia coli, UniProt P0AES6); test: Test for evaluating the activity of inhibiting E. coli DNA gyrase enzyme (Method 2, supercoiling, recombinant gyrA/gyrB complex); format: biochemical
T2 construct: made in house; host or cells: E. coli BL21 (DE3)
Summary of the method: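 Recombinant E. coli gyrA/gyrB complex (His-tagged, BL21(DE3)-expressed, Ni-NTA purified; 0.135 nmol/mL final) supercoiled relaxed pBR322 (1 ng/μL) with 0.5 mmol/L ATP in pH 8.0 Tris buffer, 60 min at room temperature. H19 stopped the reaction; supercoiled/relaxed ratio read at 485/535 nm, inhibition curves built from varying compound concentrations.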

E. coli DNA gyrase [3] = biological target: T2, E. coli DNA gyrase; test: Test for evaluating the activity of inhibiting E. coli DNA gyrase enzyme (Method 1, supercoiling, Inspiralis enzyme); format: biochemical
Protocol: Test Example 1-1 Test for Evaluating the Activity of Inhibiting E. coli DNA Gyrase Enzyme (Method 1)
The enzymatic activity of E. coli DNA gyrase was measured by a method comprising reacting DNA gyrase and its substrate, relaxed pBR322 (Inspiralis), in the presence of ATP and detecting the post-reaction supercoiled pBR322/relaxed pBR322 ratio with H19 (Profoldin).
as §1, with “to 1” for “to 2”, “of relaxed” for “of supercoiled”, “coli DNA gyrase” for “coli topoisomerase IV”, “of 0.006” for “of 0.0075”, “for 60” for “for 30”, “above. […] The test results of interest are shown in [Table 20-1] and [Table 20-2].” for “above.”

[4] = read-out: E. Coli TopoIV relaxation IC50
[5] = Method 2, read-out: E. Coli Gyrase supercoiling IC50
[6] = Method 1, read-out: E. Coli Gyrase supercoiling IC50

T1 sequence (P20083 whole entry): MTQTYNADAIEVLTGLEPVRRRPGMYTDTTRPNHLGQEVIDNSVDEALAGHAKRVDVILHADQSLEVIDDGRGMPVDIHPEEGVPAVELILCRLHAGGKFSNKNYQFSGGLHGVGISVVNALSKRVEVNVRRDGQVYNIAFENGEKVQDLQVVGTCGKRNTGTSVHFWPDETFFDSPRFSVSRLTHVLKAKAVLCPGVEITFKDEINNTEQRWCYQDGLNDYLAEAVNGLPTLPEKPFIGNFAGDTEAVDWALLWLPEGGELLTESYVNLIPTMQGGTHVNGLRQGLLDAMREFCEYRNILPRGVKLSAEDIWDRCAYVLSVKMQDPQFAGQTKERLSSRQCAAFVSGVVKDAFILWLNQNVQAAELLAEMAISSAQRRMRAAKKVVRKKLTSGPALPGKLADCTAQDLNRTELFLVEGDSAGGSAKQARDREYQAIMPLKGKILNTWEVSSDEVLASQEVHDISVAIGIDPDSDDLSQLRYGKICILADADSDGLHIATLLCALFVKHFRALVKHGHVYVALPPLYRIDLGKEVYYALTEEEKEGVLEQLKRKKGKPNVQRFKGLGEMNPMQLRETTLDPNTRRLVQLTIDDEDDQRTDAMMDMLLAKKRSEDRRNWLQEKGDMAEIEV
T1 sequence (P0AFI2 whole entry, further chain): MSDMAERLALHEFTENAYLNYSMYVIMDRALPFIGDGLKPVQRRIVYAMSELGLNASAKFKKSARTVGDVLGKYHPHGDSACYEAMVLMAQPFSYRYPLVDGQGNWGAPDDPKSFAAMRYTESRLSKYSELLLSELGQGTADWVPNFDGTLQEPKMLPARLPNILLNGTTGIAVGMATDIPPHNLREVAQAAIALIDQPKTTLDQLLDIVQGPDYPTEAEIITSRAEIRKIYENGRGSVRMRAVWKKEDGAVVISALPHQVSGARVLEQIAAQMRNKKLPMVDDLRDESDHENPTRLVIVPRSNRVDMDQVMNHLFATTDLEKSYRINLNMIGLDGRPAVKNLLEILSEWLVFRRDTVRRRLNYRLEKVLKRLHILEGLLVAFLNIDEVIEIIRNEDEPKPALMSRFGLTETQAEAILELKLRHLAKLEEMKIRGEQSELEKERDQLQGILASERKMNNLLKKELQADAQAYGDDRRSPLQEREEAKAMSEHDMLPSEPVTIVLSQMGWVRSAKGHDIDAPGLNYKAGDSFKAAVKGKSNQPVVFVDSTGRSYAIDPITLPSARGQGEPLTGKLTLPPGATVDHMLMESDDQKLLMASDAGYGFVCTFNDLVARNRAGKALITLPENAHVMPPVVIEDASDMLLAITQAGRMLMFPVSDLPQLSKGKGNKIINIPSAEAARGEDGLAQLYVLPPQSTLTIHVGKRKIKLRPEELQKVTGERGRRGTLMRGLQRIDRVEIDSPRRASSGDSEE

Structure (SMILES) | MIC (E. Coli ATCC 25922) | MIC [1] | IC50 (E. coli topoisomerase IV; [4]) | IC50 (E. coli DNA gyrase [2]; [5]) | IC50 (E. coli DNA gyrase [3]; [6]) | IC50 (E. coli DNA gyrase [3]) | IC50 (E. coli DNA gyrase [2]) | IC50 (E. coli topoisomerase IV)
CNc1cccc2cc(C(=O)Nc3ccc(C(=O)O)cc3)c(=O)[nH]c12 [Example 2, 4-{[8-(methylamino)-2-oxo-1,2-dihydroquinoline-3-carbonyl]amino} benzoic acid] | 64 µg/mL (≈ 190 µM) | > 1 µg/mL | 980 nM | – | – | – | – | –
CNc1cccc2cc(C(=O)NCCc3cccc(C(=O)O)c3)c(=O)[nH]c12 [Example 5, 3-(2-{[8-(methylamino)-2-oxo-1,2-dihydroquinoline-3-carbonyl]amino}ethyl)benzoic acid] | > 64 µg/mL | – | 17000 nM | 9.75 nM | – | – | – | –
CNc1cccc2cc(C(=O)Nc3ccccc3CN(C)C3CCCCC3)c(=O)[nH]c12 [Example 7, N-(2-[[Cyclohexyl(methyl)amino]methyl]phenyl)-8-(methylamino)-2-oxo-1,2-dihydroquinoline-3-carboxamide] | > 32 µg/mL | > 4 µg/mL | – | – | 3.35 nM | – | – | –
CNc1cccc2cc(C(=O)NCc3ccc(C(=O)O)cc3C)c(=O)[nH]c12 [Example 8, 3-methyl-4-({[8-(methylamino)-2-oxo-1,2-dihydroquinoline-3-carbonyl]amino}methyl)benzoic acid] | > 64 µg/mL | 4 µg/mL (≈ 10.9 µM) | – | – | 30.1 nM | – | – | –
CNc1cccc2cc(C(=O)Nc3cccc(=O)[nH]3)c(=O)[nH]c12 [Example 16, 8-(methylamino)-2-oxo-N-(6-oxo-1,6-dihydro-pyridine-2-yl)-1,2-dihydroquinoline-3-carboxamide] | > 64 µg/mL | > 4 µg/mL | – | – | 131 nM | – | – | –
CNc1nccc2cc(C(=O)Nc3ccc(C(=O)O)cc3)c(=O)[nH]c12 [Example 17, 4-[[8-(Methylamino)-2-oxo-1,2-dihydro-1,7-naphthyridine-3-carbonyl]amino]benzoic Acid] | > 64 µg/mL | > 1 µg/mL | – | – | 293 nM | – | – | –
CNc1cccc2cc(C(=O)Nc3ccc(-c4noc(=O)[nH]4)cc3)c(=O)[nH]c12 [Example 18, 8-(methylamino)-2-oxo-N-[4-(5-oxo-4,5-dihydro-1,2,4-oxadiazole-3-yl)phenyl]-1,2-dihydroquinoline-3-carboxamide] | > 0.5 µg/mL | 0.25 µg/mL (≈ 0.662 µM) | – | – | 15.7 nM | – | – | –
CNc1cccc2cc(C(=O)OCc3ccncc3N)c(=O)[nH]c12 [Example 19, (3-aminopyridine-4-yl)methyl 8-(methyl-amino)-2-oxo-1,2-dihydroquinoline-3-carboxylate] | > 16 µg/mL | > 4 µg/mL | – | – | 426 nM | – | – | –
CN=S(C)(=O)c1ccc(NC(=O)c2cc3cccc(NC)c3[nH]c2=O)cc1 (stereo not drawn) [Example 22, N-[4-(N,S-dimethane-sulfonimidoyl)phenyl]-8-(methylamino)-2-oxo-1,2-dihydroquinoline-3-carboxamide] | > 8 µg/mL | > 4 µg/mL | – | – | 174 nM | – | – | –
CNc1cccc2cc(C(=O)Nc3cnc(N4CCN(C)CC4)nc3)c(=O)[nH]c12 [Example 28, 8-(methylamino)-N-[2-(4 methylpiperazine-1-yl)pyrimidine-5-yl]-2-oxo-1,2-dihydroquinoline-3-carboxamide] | > 16 µg/mL | > 4 µg/mL | – | – | 32 nM | – | – | –
CNc1cccc2cc(C(=O)NCCc3cn4cccnc4n3)c(=O)[nH]c12 [Example 29, N-[2-(imidazo [1,2-a]pyrimidine-2-yl)ethyl]-8-(methylamino)-2-oxo-1,2-dihydroquinoline-3-carboxamide] | > 64 µg/mL | > 4 µg/mL | – | – | 28.2 nM | – | – | –
CNc1cc(F)cc2cc(C(=O)Nc3ccc(C(=O)NCCN4CCOCC4)cc3)c(=O)[nH]c12 [Example 40, 6-Fluoro-8-(methylamino)-N-(4-[[2-(morpholin-4-yl)ethyl]carbamoyl]phenyl)-2-oxo-1,2-dihydroquinoline-3-carboxamide] | 4 µg/mL (≈ 8.56 µM) | – | 1300 nM | 7.29 nM | – | – | – | –
CNc1cc(F)cc2cc(C(=O)Nc3cncnc3)c(=O)[nH]c12 [Example 50, 6-fluoro-8-(methylamino)-2-oxo-N-(pyrimidine-5-yl)-1,2-dihydroquinoline-3-carboxamide] | > 8 µg/mL | 0.06 µg/mL (≈ 0.192 µM) | – | – | 1.87 nM | – | – | –
CNc1cc(F)cc2cc(C(=O)Nc3ccc(C(=O)O)c(OCCN4CCN(C)CC4)c3)c(=O)[nH]c12 [Example 54, 4-{[6-fluoro-8-(methylamino)-2-oxo-1,2-dihydroquinoline-3-carbonyl]amino}-2-[2-(4-methylpiperazine-1-yl)ethoxy] benzoic acid-hydrochloride] | > 16 µg/mL | 1 µg/mL | – | – | 1.9 nM | – | – | –
CNc1cc(F)cc2cc(C(=O)N(C)c3ccc(C(=O)O)cc3)c(=O)[nH]c12 [Example 56, 4-{[6-fluoro-8-(methylamino)-2-oxo-1,2-dihydroquinoline-3-carbonyl] (melhyl)amino} benzoic acid] | > 64 µg/mL | 0.12 µg/mL (≈ 0.325 µM) | – | – | – | 18 nM | – | –
CNc1cc(F)cc2cc(C(=O)Nc3ccc(C(=O)O)c(O)c3)c(=O)[nH]c12 [Example 58, 4-{[6-fluoro-8-(methylamino)-2-oxo-1,2-dihydroquinoline-3-carbonyl]amino}-2-hydroxybenzoic acid] | > 32 µg/mL | 0.12 µg/mL (≈ 0.323 µM) | – | – | 2.05 nM | – | – | –
CNc1cc(F)cc2cc(C(=O)Nc3ccc(C(=O)O)c(OCCCN)c3)c(=O)[nH]c12.O=CO [Example 62, 2-(3-Aminopropoxy)-4-[[6-fluoro-8-(methylamino)-2-oxo-1,2-dihydroquinoline-3-carbonyl]amino]benzoic acid-formate] | > 16 µg/mL | 2 µg/mL | – | – | – | 0.92 nM | – | –
CNc1cc(F)cc2cc(C(=O)NCCc3cccc(C(=O)O)c3)c(=O)[nH]c12 [Example 66, 3-(2-{[6-fluoro-8-(methylamino)-2-oxo-1,2-dihydroquinoline-3-carbonyl]amino}ethyl) benzoic acid] | > 32 µg/mL | 0.25 µg/mL (≈ 0.652 µM) | – | – | 0.95 nM | – | – | –
CNc1cc(F)cc2cc(C(=O)Nc3cccnc3)c(=O)[nH]c12 [Example 72, 6-fluoro-8-(methylamino)-2-oxo-N-(pyridine-3-yl)-1,2-dihydroquinoline-3-carboxamide] | > 4 µg/mL | 0.12 µg/mL (≈ 0.384 µM) | – | – | 8.03 nM | – | – | –
CNc1cc(F)cc2cc(C(=O)Nc3ccccc3)c(=O)[nH]c12 [Example 76, 6-fluoro-8-(methylamino)-2-oxo-N-phenyl-1,2-dihydroquinoline-3-carboxamide] | > 32 µg/mL | 0.25 µg/mL (≈ 0.803 µM) | – | – | 249 nM | – | – | –
CNc1cc(F)cc2cc(C(=O)OCc3ccncc3N)c(=O)[nH]c12 [Example 77, (3-aminopyridine-4-yl)methyl 6-fluoro-8-(methylamino)-2-oxo-1,2-dihydroquinoline-3-carboxylate] | > 16 µg/mL | 1 µg/mL (≈ 2.92 µM) | – | – | 24.3 nM | – | – | –
CNc1cc(F)cc2cc(C(=O)Nc3ccccc3CN(CCO)C3CCCCC3)c(=O)[nH]c12 [Example 123, N-(2-{[cyclohexyl(2-hydroxyethyl)amino]methyl}phenyl)-6-fluoro-8-(methylamino)-2-oxo-1,2-dihydroquinoline-3-carboxamide] | 8 µg/mL (≈ 17.1 µM) | – | 615 nM | 3.59 nM | – | – | – | –
CNc1cc(F)cc2c(NCC3CCNC3)c(C(=O)Nc3ccc(C(=O)O)cc3)c(=O)[nH]c12.O=CO (stereo not drawn) [Example 133, 4-{[6-fluoro-8-(methylamino)-2-oxo-4-{[(pyrrolidine-3-yl)methyl]amino}-1,2-dihydroqunoline-3-carbonyl]amino}benzoic acid-formate] | > 16 µg/mL | – | – | – | – | – | 0.82 nM | 160 nM
